Columns and labels:
Assay in all cases: Test D pre-/postemergence plant response
Assay type in all cases: in vivo
[1] = tested on: morningglory (Ipomoea coccinea); conditions: for Plant response rating, Morningglory: Preemergence
Method in brief: (§1)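 Pre-/post-emergence greenhouse test. Pre: seeded loam+sand, sprayed same day. Post: 1–4 leaf plants (2–18 cm), peat/vermiculite mix. Formulation: non-phytotoxic solvent + surfactant. Scored visually d13–15, 0–100 vs control.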

[2] = tested on: ragweed (common ragweed, Ambrosia elatior); conditions: for Plant response rating, Ragweed: Preemergence
Method in brief: as §1

[3] = tested on: waterhemp (common waterhemp, Amaranthus rudis); conditions: for Plant response rating, Waterhemp: Preemergence
Method in brief: as §1

[4] = tested on: giant foxtail (Setaria faberii); conditions: for Plant response rating (scale 0 to 100), Foxtail, Giant / Foxtail, Giant plant response rating: Postemergence; for Foxtail, Giant plant response rating / Plant response rating, Foxtail, Giant: scale 0 to 100 (0 no effect, 100 complete control); for Plant response rating, Foxtail, Giant: Preemergence
Method in brief: as §1

[5] = tested on: galium (catchweed bedstraw, Galium aparine); conditions: for Plant response rating, Galium: Preemergence
Method in brief: as §1

soybean (Glycine max) = conditions: for Plant response rating, Soybean: Preemergence
Method in brief: as §1

[6] = tested on: velvetleaf (Abutilon theophrasti); conditions: for Plant response rating, Velvetleaf: Preemergence
Method in brief: as §1

[7] = tested on: oilseed rape (Brassica napus); conditions: for Plant response rating, Oilseed Rape: Preemergence
Method in brief: as §1

[8] = tested on: Italian ryegrass (Lolium multiflorum); conditions: for Plant response rating, Ryegrass, Italian: Preemergence
Method in brief: as §1

corn (Zea mays) = conditions: for Plant response rating (scale 0 to 100), Corn / Corn plant response rating: Postemergence; for Corn plant response rating / Plant response rating, Corn: scale 0 to 100 (0 no effect, 100 complete control); for Plant response rating, Corn: Preemergence
Method in brief: as §1

[9] = tested on: lambsquarters (Chenopodium album); conditions: for Plant response rating, Lambsquarters: Preemergence
Method in brief: as §1

[10] = tested on: winter wheat (Triticum aestivum); conditions: for Plant response rating, Wheat: Preemergence
Method in brief: as §1

[11] = tested on: large (Lg) crabgrass (Digitaria sanguinalis); conditions: for Plant response rating (scale 0 to 100), Crabgrass, Large / Crabgrass, Large plant response rating: Postemergence; for Crabgrass, Large plant response rating / Plant response rating, Crabgrass, Large: scale 0 to 100 (0 no effect, 100 complete control); for Plant response rating, Crabgrass, Large: Preemergence
Method in brief: as §1

[12] = tested on: yellow nutsedge (Cyperus esculentus); conditions: for Plant response rating, Nutsedge, Yellow: Preemergence
Method in brief: as §1

[13] = tested on: johnsongrass (Sorghum halepense); conditions: for Plant response rating, Johnsongrass: Preemergence
Method in brief: as §1

[14] = tested on: barnyardgrass (Echinochloa crus-galli); conditions: for Plant response rating (scale 0 to 100), Barnyardgrass / Barnyardgrass plant response rating: Postemergence; for Barnyardgrass plant response rating / Plant response rating, Barnyardgrass: scale 0 to 100 (0 no effect, 100 complete control); for Plant response rating, Barnyardgrass: Preemergence
Method in brief: as §1

[15] = tested on: blackgrass (Alopecurus myosuroides); conditions: for Plant response rating (scale 0 to 100), Blackgrass / Blackgrass plant response rating: Postemergence; for Blackgrass plant response rating / Plant response rating, Blackgrass: scale 0 to 100 (0 no effect, 100 complete control); for Plant response rating, Blackgrass: Preemergence
Method in brief: as §1

[16] = tested on: pigweed (Amaranthus retroflexus); conditions: for Plant response rating, Pigweed: Preemergence
Method in brief: as §1

[17] = Postemergence, 31 g ai/ha, scale 0 to 100 (0 no effect, 100 complete control)
[18] = 4 g ai/ha, scale 0 to 100 (0 no effect, 100 complete control)
[19] = 8 g ai/ha, scale 0 to 100 (0 no effect, 100 complete control)
[20] = 16 g ai/ha, scale 0 to 100 (0 no effect, 100 complete control)
[21] = 31 g ai/ha, scale 0 to 100 (0 no effect, 100 complete control)

Structure (SMILES): N#Cc1cccc(Oc2ncc(Cl)cn2)c1-c1cc(C(F)(F)F)on1 [Compound 157]
- Plant response rating (scale 0 to 100), Morningglory ([1]; Postemergence, 4 g ai/ha): 0
- Plant response rating (scale 0 to 100), Morningglory ([1]; Postemergence, 8 g ai/ha): 5
- Morningglory plant response rating [1, 17]: 35
- Plant response rating, Morningglory [1, 18]: 0
- Plant response rating, Morningglory [1, 19]: 0
- Plant response rating, Morningglory [1, 20]: 0
- Plant response rating, Morningglory [1, 21]: 10
- Plant response rating (scale 0 to 100), Ragweed ([2]; Postemergence, 4 g ai/ha): 50
- Plant response rating (scale 0 to 100), Ragweed ([2]; Postemergence, 8 g ai/ha): 15
- Ragweed plant response rating [2, 17]: 25
- Plant response rating, Ragweed [2, 18]: 0
- Plant response rating, Ragweed [2, 19]: 0
- Plant response rating, Ragweed [2, 20]: 0
- Plant response rating, Ragweed [2, 21]: 0
- Plant response rating (scale 0 to 100), Waterhemp ([3]; Postemergence, 4 g ai/ha): 20
- Plant response rating (scale 0 to 100), Waterhemp ([3]; Postemergence, 8 g ai/ha): 55
- Waterhemp plant response rating [3, 17]: 75
- Plant response rating, Waterhemp [3, 18]: 0
- Plant response rating, Waterhemp [3, 19]: 70
- Plant response rating, Waterhemp [3, 20]: 100
- Plant response rating, Waterhemp [3, 21]: 100
- Plant response rating (scale 0 to 100), Foxtail, Giant ([4]; 4 g ai/ha): 0
- Plant response rating (scale 0 to 100), Foxtail, Giant ([4]; 8 g ai/ha): 20
- Foxtail, Giant plant response rating ([4]; 16 g ai/ha): 40
- Foxtail, Giant plant response rating ([4]; 31 g ai/ha): 20
- Plant response rating, Foxtail, Giant ([4]; 4 g ai/ha): 0
- Plant response rating, Foxtail, Giant ([4]; 8 g ai/ha): 0
- Plant response rating, Foxtail, Giant ([4]; 16 g ai/ha): 0
- Plant response rating, Foxtail, Giant ([4]; 31 g ai/ha): 20
- Plant response rating (scale 0 to 100), Galium ([5]; Postemergence, 4 g ai/ha): 10
- Plant response rating (scale 0 to 100), Galium ([5]; Postemergence, 8 g ai/ha): 50
- Galium plant response rating [5, 17]: 70
- Plant response rating, Galium [5, 18]: 70
- Plant response rating, Galium [5, 19]: 80
- Plant response rating, Galium [5, 20]: 80
- Plant response rating, Galium [5, 21]: 85
- Plant response rating (scale 0 to 100), Soybean (soybean (Glycine max); Postemergence, 4 g ai/ha): 5
- Plant response rating (scale 0 to 100), Soybean (soybean (Glycine max); Postemergence, 8 g ai/ha): 10
- Soybean plant response rating (soybean (Glycine max); [17]): 35
- Plant response rating, Soybean (soybean (Glycine max); [18]): 0
- Plant response rating, Soybean (soybean (Glycine max); [19]): 0
- Plant response rating, Soybean (soybean (Glycine max); [20]): 0
- Plant response rating, Soybean (soybean (Glycine max); [21]): 50
- Plant response rating (scale 0 to 100), Velvetleaf ([6]; Postemergence, 4 g ai/ha): 5
- Plant response rating (scale 0 to 100), Velvetleaf ([6]; Postemergence, 8 g ai/ha): 5
- Velvetleaf plant response rating [6, 17]: 40
- Plant response rating, Velvetleaf [6, 18]: 0
- Plant response rating, Velvetleaf [6, 19]: 5
- Plant response rating, Velvetleaf [6, 20]: 45
- Plant response rating, Velvetleaf [6, 21]: 75
- Plant response rating (scale 0 to 100), Oilseed Rape ([7]; Postemergence, 4 g ai/ha): 0
- Plant response rating (scale 0 to 100), Oilseed Rape ([7]; Postemergence, 8 g ai/ha): 5
- Oilseed Rape plant response rating [7, 17]: 25
- Plant response rating, Oilseed Rape [7, 18]: 0
- Plant response rating, Oilseed Rape [7, 19]: 0
- Plant response rating, Oilseed Rape [7, 20]: 40
- Plant response rating, Oilseed Rape [7, 21]: 100
- Plant response rating (scale 0 to 100), Ryegrass, Italian ([8]; Postemergence, 4 g ai/ha): 0
- Plant response rating (scale 0 to 100), Ryegrass, Italian ([8]; Postemergence, 8 g ai/ha): 0
- Ryegrass, Italian plant response rating [8, 17]: 5
- Plant response rating, Ryegrass, Italian [8, 18]: 0
- Plant response rating, Ryegrass, Italian [8, 19]: 0
- Plant response rating, Ryegrass, Italian [8, 20]: 0
- Plant response rating, Ryegrass, Italian [8, 21]: 5
- Plant response rating (scale 0 to 100), Corn (corn (Zea mays); 4 g ai/ha): 0
- Plant response rating (scale 0 to 100), Corn (corn (Zea mays); 8 g ai/ha): 0
- Corn plant response rating (corn (Zea mays); 16 g ai/ha): 5
- Corn plant response rating (corn (Zea mays); 31 g ai/ha): 5
- Plant response rating, Corn (corn (Zea mays); 4 g ai/ha): 0
- Plant response rating, Corn (corn (Zea mays); 8 g ai/ha): 0
- Plant response rating, Corn (corn (Zea mays); 16 g ai/ha): 5
- Plant response rating, Corn (corn (Zea mays); 31 g ai/ha): 0
- Plant response rating (scale 0 to 100), Lambsquarters ([9]; Postemergence, 4 g ai/ha): 20
- Plant response rating (scale 0 to 100), Lambsquarters ([9]; Postemergence, 8 g ai/ha): 25
- Lambsquarters plant response rating [9, 17]: 55
- Plant response rating, Lambsquarters [9, 18]: 0
- Plant response rating, Lambsquarters [9, 19]: 25
- Plant response rating, Lambsquarters [9, 20]: 100
- Plant response rating, Lambsquarters [9, 21]: 100
- Plant response rating (scale 0 to 100), Wheat ([10]; Postemergence, 4 g ai/ha): 0
- Plant response rating (scale 0 to 100), Wheat ([10]; Postemergence, 8 g ai/ha): 0
- Wheat plant response rating [10, 17]: 0
- Plant response rating, Wheat [10, 18]: 0
- Plant response rating, Wheat [10, 19]: 0
- Plant response rating, Wheat [10, 20]: 0
- Plant response rating, Wheat [10, 21]: 5
- Plant response rating (scale 0 to 100), Crabgrass, Large ([11]; 4 g ai/ha): 0
- Plant response rating (scale 0 to 100), Crabgrass, Large ([11]; 8 g ai/ha): 5
- Crabgrass, Large plant response rating ([11]; 16 g ai/ha): 5
- Crabgrass, Large plant response rating ([11]; 31 g ai/ha): 5
- Plant response rating, Crabgrass, Large ([11]; 4 g ai/ha): 0
- Plant response rating, Crabgrass, Large ([11]; 8 g ai/ha): 0
- Plant response rating, Crabgrass, Large ([11]; 16 g ai/ha): 5
- Plant response rating, Crabgrass, Large ([11]; 31 g ai/ha): 40
- Plant response rating (scale 0 to 100), Nutsedge, Yellow ([12]; Postemergence, 4 g ai/ha): 0
- Plant response rating (scale 0 to 100), Nutsedge, Yellow ([12]; Postemergence, 8 g ai/ha): 5
- Nutsedge, Yellow plant response rating [12, 17]: 10
- Plant response rating, Nutsedge, Yellow [12, 18]: 0
- Plant response rating, Nutsedge, Yellow [12, 19]: 0
- Plant response rating, Nutsedge, Yellow [12, 20]: 0
- Plant response rating, Nutsedge, Yellow [12, 21]: 0
- Plant response rating (scale 0 to 100), Johnsongrass ([13]; Postemergence, 4 g ai/ha): 0
- Plant response rating (scale 0 to 100), Johnsongrass ([13]; Postemergence, 8 g ai/ha): 0
- Johnsongrass plant response rating [13, 17]: 0
- Plant response rating, Johnsongrass [13, 18]: 0
- Plant response rating, Johnsongrass [13, 19]: 0
- Plant response rating, Johnsongrass [13, 20]: 0
- Plant response rating, Johnsongrass [13, 21]: 5
- Plant response rating (scale 0 to 100), Barnyardgrass ([14]; 4 g ai/ha): 0
- Plant response rating (scale 0 to 100), Barnyardgrass ([14]; 8 g ai/ha): 0
- Barnyardgrass plant response rating ([14]; 16 g ai/ha): 5
- Barnyardgrass plant response rating ([14]; 31 g ai/ha): 5
- Plant response rating, Barnyardgrass ([14]; 4 g ai/ha): 0
- Plant response rating, Barnyardgrass ([14]; 8 g ai/ha): 0
- Plant response rating, Barnyardgrass ([14]; 16 g ai/ha): 0
- Plant response rating, Barnyardgrass ([14]; 31 g ai/ha): 5
- Plant response rating (scale 0 to 100), Blackgrass ([15]; 4 g ai/ha): 0
- Plant response rating (scale 0 to 100), Blackgrass ([15]; 8 g ai/ha): 0
- Blackgrass plant response rating ([15]; 16 g ai/ha): 5
- Blackgrass plant response rating ([15]; 31 g ai/ha): 5
- Plant response rating, Blackgrass ([15]; 4 g ai/ha): 0
- Plant response rating, Blackgrass ([15]; 8 g ai/ha): 0
- Plant response rating, Blackgrass ([15]; 16 g ai/ha): 0
- Plant response rating, Blackgrass ([15]; 31 g ai/ha): 5
- Plant response rating (scale 0 to 100), Pigweed ([16]; Postemergence, 4 g ai/ha): 35
- Plant response rating (scale 0 to 100), Pigweed ([16]; Postemergence, 8 g ai/ha): 70
- Pigweed plant response rating [16, 17]: 65
- Plant response rating, Pigweed [16, 18]: 20
- Plant response rating, Pigweed [16, 19]: 100
- Plant response rating, Pigweed [16, 20]: 100
- Plant response rating, Pigweed [16, 21]: 100

— patent US10131652B2, “Pyrimidinyloxy benzene derivatives as herbicides” (E. I. DU PONT DE NEMOURS AND COMPANY, priority 2014, dated 2018)
